Experimental data reported in article PMC8047011, “Enantiomers of 2-methylglutamate and 2-methylglutamine selectively impact mouse brain metabolism and behavior” (Scientific Reports, 2021).

Assays:
[1] = tested on: C57Bl/6 mice; experiment: Activity chamber open field; assay type: in vivo, mouse; settings: for Distance moved in the activity chamber vs vehicle: n = 6; for Distance moved in the activity chamber: chronic 10 mg/kg/day IP, after one week
From the text: (§1) See Supplementary Methods for details. […]
Activity Chamber Open Field: Assessment was made in an Open Field Activity Arena (Med Associates Inc., St. Albans, VT. Model ENV-515) mounted with three planes of infrared detectors within a specially designed sound-attenuating chamber (Med Associates Inc., St.
Albans, VT. MED-017M-027). The arena was 43 cm (L) x 43 cm (W) x 30 cm (H) and the […]
in the periphery and center of the Arena. […]
without bedding, and in a sound isolating chamber. The activity chamber measures distance moved using infrared beams and without video recordings. […]
were used in the study. The animals were housed as described above.
The first dose was administered […]
described above for 30 min.

[2] = tested on: C57Bl/6 mice; experiment: Fear conditioning; assay type: in vivo, mouse; settings: chronic 10 mg/kg/day IP, week 4 of testing
From the text: as §1
Fear Conditioning: Coulbourn Instruments (Holliston, MA, USA) fear conditioning system and FreezeFrame software were used for analysis. The experiment consisted of 1 day of training, 1 day of contextual testing, and 1 day of cued testing. The training and contextual testing chambers were identical with similar context. The walls were made of aluminum. The floor was […]
a gray metal grid through which the US was delivered, and the chambers used yellow color house light and were scented with mint extract to produce a unique smell in the chambers. The chambers were cleaned with a 10% simple green solution (Sunshine Makers, Inc.) between each mouse. The cued testing chambers were circular-shaped, made of plastic, used blue color house light, and were scented with vanilla extract to create a unique context different from training and contextual testing. This chamber was cleaned with 70% ethanol between each mouse. Both chambers were mounted within specially designed sound-attenuating chambers.
Each chamber had speakers mounted on the wall and included an exhaust fan and camera. On Day 1 training, mice were placed individually into a training chamber for 200 seconds. A tone (20 seconds, 80 dB, 2 kHz) was presented to the mouse, followed by an electrical shock (intensity 0.5 mA, 2 seconds) 18 seconds after the end of the tone (Misane et al. 2005, Burman 2014, Lugo et al. 2014). This procedure was repeated two times with a 60 second interval from the end of the shock to the next tone. The mouse was removed from the chamber and returned to the home cage 60 seconds after the last shock. On Day 2, the mice were placed back into the training chamber without any tone or shock for contextual memory testing for 15 minutes. On Day 3, the mice were placed into the cued testing chamber with just tones (20 seconds, 80dB, 2 kHz) presented 3 times with 80 second intervals after 200 seconds of habituation. Overall, the mice received the tone and shock pairings only on the training day. An overhead camera was used to record mice freezing behavior. The fear conditioning test was conducted after four weeks of exposure to compounds or vehicle.
We have shown when studying the cognitive enhancement in normal, young control mice, overtraining of the animals will lead to saturation of behavioral learning, making it very difficult to display pharmacological improvements in behavioral paradigms. We therefore chose less training trials per day and less number of training days in the Morris water maze to increase the likelihood of observing drug effects. Likewise, the fear conditioning task, we chose lower shock

[3] = tested on: C57Bl/6 mice; experiment: Chronic low dose exposure, mortality and body weight; settings: 10 mg/kg/day IP for a month
Description: Behavioral tests were performed on 2 month-old, male, C57Bl/6 mice. We selected male mice because SBFNL historical controls are male mice. First, we assessed safety and tolerability of acute exposure to our novel chemicals through the following sequence of tests immediately following IP injection: maximum tolerated dose with novel cage observation at 100, 300, or 900 mg/kg, and then SHIRPA, activity chamber, and then hot plate latency using 100 or 30 mg/kg IP in different drug naïve mice. […] Animals were dosed daily from 3 to 5 PM after the conclusion of each behavioral testing session. […] See Supplementary Methods for details. […]
sound-attenuating chamber was 74 cm (L) x 60 cm (W) x 60 cm (H). The mice were placed in the corner of the testing arena and allowed to explore the arena for 60 min while being tracked automatically. Parameters measured include distance moved, velocity, rearing, and times spent in the periphery and center of the Arena. Periphery was defined as the zone 5 cm away from the arena wall. The Arena was cleaned with a 1% Virkon solution at the end of the trial.
The novel cage observation (vide supra) and activity chamber open field assessment are not […]
outcome. The novel cage protocol is conducted on the benchtop in a lighted room using a clean home cage, and tests habituation using video recording and scoring of behavioral performance.
Moreover, the novel cage allows the tester to visualize any other side effects such as seizure or repetitive jumping. The activity chamber is in an enclosed box, and the test is done in the dark, without bedding, and in a sound isolating chamber. The activity chamber measures distance moved using infrared beams and without video recordings.
In vivo animal studies; Chronic Efficacy Study using C57Bl/6J mice
Animal: Two month-old, naïve male C57Bl/6 mice from Jackson Laboratory (Stock ID# 000664) were used in the study. The animals were housed as described above.
Dosing: (R)-2MeGlu (10 mg/kg), (S)-2MeGlu (10 mg/kg), rac-2MeGln (10 mg/kg), and vehicle (PBS) were administered IP at 10 ml/kg dosing volume daily. […]

[4] = tested on: C57Bl/6 mice; experiment: Y maze spontaneous alternation; assay type: in vivo, mouse; settings: chronic 10 mg/kg/day IP, week 2 of testing
From the text: Y Maze Spontaneous Alternation: The Y maze is made of plastic with 3 arms in a "Y" shape.
The arms are labelled as Arm A, B, and C; Arm A is 20.32 cm (L) x 5 cm (W) 12.7 cm (H), Arm B and C are 15.24 cm (L) x 5 cm (W), and 12.7 cm (H). The test is based on the willingness of rodents to explore a novel environment and designed to measure spontaneous alternations in rodents. Each mouse was placed in the center of the maze facing Arm B. The first entry was excluded from data analysis because the animals were led to the initial arm entry by the experimenter. Using an overhead camera, the number of arm entries and alternations were recorded for 5 minutes. An arm entry is when all four paws enter into a new arm of the maze.
The apparatus was cleaned with 1% Virkon. Parameters recorded were % alternation and the total number of entries into arms. […]

SMILES | Distance moved in the activity chamber vs vehicle ([1]; acute 30 mg/kg IP) | Distance moved in the activity chamber vs vehicle ([1]; acute 100 mg/kg IP) | Distance moved in the activity chamber [1] | Fear conditioning Day 1, learning of the tone-shock association [2] | Fear conditioning Day 2, contextual recall vs vehicle [2] | Fear conditioning Day 3, freezing during cued recall or tone presentation vs vehicle [2] | Body weight over the month [3] | Spontaneous alternation in the Y maze [4]
CC(N)(CCC(N)=O)C(=O)O (racemic) [rac-2MeGln, rac-2-methylglutamine] | modest but significant reduction in distance moved only at 11 min post injection | not significantly different from vehicle at any time point | no significant effect of treatment | equivalent learning of the tone-shock association | no significant effect of treatments | no significant differences detected | no significant effect of treatment | no significant effect of treatment
C[C@@](N)(CCC(=O)O)C(=O)O [(R)-2MeGlu, (R)-2-methylglutamic acid] | modest but significant reduction in distance moved only at 11 min post injection | significantly reduced | no significant effect of treatment | equivalent learning of the tone-shock association | no significant effect of treatments | no significant differences detected | no significant effect of treatment | no significant effect of treatment
C[C@](N)(CCC(=O)O)C(=O)O [(S)-2MeGlu, (S)-2-methylglutamic acid] | not significantly different | significantly reduced | no significant effect of treatment | equivalent learning of the tone-shock association | no significant effect of treatments | no significant differences detected | no significant effect of treatment | no significant effect of treatment
